{"source": "patent US10487307B2", "about": "“Culture method for pluripotent stem cells” (FUJIFILM CORPORATION, priority 2013, dated 2019)", "key": {"[1]": {"system": "human iPS cells", "assay": "Cell adhesiveness evaluation 2 (synthetic peptides added to cells seeded on natural vitronectin)", "type": "cell-based", "settings": "for adhesion of cells to the natural vitronectin on addition of peptide: 100 μM synthetic polypeptide; for Cell adhesion rate (%): 100 μM synthetic polypeptide in cell suspension, natural vitronectin surface 130 pmol/cm^2, 24 hours, no peptide = 100%, n=3", "description": "The polypeptides shown in Table 8 were synthesized by an Fmoc solid-phase synthesis method. A surface onto which natural vitronectin was adsorbed at a concentration of 130 pmol/cm^2 was prepared, and then a cell suspension to which 100 μM of the aforementioned synthetic polypeptides were added was seeded into wells at a ratio of 30,000 cells/well. The number of adhesive cells 24 hours after seeding was calculated in the same manner as in <Cell adhesiveness evaluation 1>, and the results are shown in Table 8. In Table 8, the cell adhesion rate is expressed as a ratio calculated by regarding the cell adhesion rate obtained by using a culture solution not containing the synthetic polypeptides as being 100%. n=3."}, "[2]": {"system": "iPS cells", "assay": "Cell growth property evaluation 2 (2-mercaptoethanol concentration in Essential 8)", "type": "cell-based, human", "settings": "for Cell growth rate: laminin 20 μg/ml, 72 hours", "description": "A cell culture surface coated with RCP-11 was prepared in the same manner as in <Cell growth property evaluation 1> of Example 1. iPS cells collected in the same manner as in <Cell growth property evaluation 1> were suspended in the respective media composed as shown in Table 12 and seeded into wells at a cell density of 10,000 cells/well. After the cells were cultured for 72 hours, the number of cells were quantified in the same manner as in <Cell growth property evaluation 1>, and the cell growth properties were evaluated based on a cell growth rate which is a ratio calculated by regarding the number of cells cultured using RPC-11 as being 100%."}, "[3]": {"system": "human iPS cells (\"Tic\")", "assay": "Cell adhesiveness evaluation 1 (ALP activity of adhesive iPS cells)", "type": "cell-based", "settings": "30,000 cells/well, 24 hours, natural vitronectin (sample 15) = 100%", "description": "The cell adhesiveness of human iPS cells (“Tic”: Cell No. JCRB 1331: from National Institute of Biomedical Innovation. [567-0085, 7-6-8 Asagi Saito Ibaraki-City Osaka]) with respect to the aforementioned polypeptides was evaluated in the following manner.\nAs feeder cells for retaining the human iPS cells, EmbryoMax (registered trademark) (early mouse embryonic fibroblasts: resistant to hygromycin, treated with mitomycin C, derived from C57/BL6, third passage) (Millipore Corporation) was used. By using DMEM (Invitrogen) and a 10% (v/v) fetal bovine serum medium, the feeder cells were cultured for 24 hours and attached to a T25 flask (Corning Incorporated). As a medium for the human iPS cells, the one obtained by adding FGF-2 (Sigma-Aldrich Co, LLC.) to a medium composed as shown in Table 6 at a final concentration of 10 ng/ml was used.\nBy using the aforementioned medium, the human iPS cells were retained and cultured in a 5% (v/v, the same unit will be used hereinafter) CO2 incubator at 37° C. Except for the day after the seeding of the iPS cells, the medium was replaced every day. The subculture operation was performed by exfoliating the cells by using Dispase II (neutral protease Grade II, Roche) and separating the cells in an appropriate size by a pipetting operation.\nThe iPS cells cultured as described above were treated with TrypLE Select (Invitrogen) for 5 minutes at 37° C. and separated into a single cell. After being subjected to centrifugation for 2 minutes at 300 rpm, the cells were collected and suspended in TeSR2 (a medium not containing a heterogeneous animal-derived component and a serum component, STEMCELL Technologies.) containing Y-27362 ((R)-(+)-trans-N-(4-pyridyl)-4-(1-aminoethyl)-cyclohexane carboxamide.2HCl.H2O, an Rho binding kinase inhibitor, Wako Pure Chemical Industries, Ltd.) at a final concentration of 10 μM.\nEach of RCP-1 to RCP-11, RCP-21, RCP-25, and RCP-26 as control, human vitronectin (extracted from human serum, BD Biosciences), and recombinant laminin (rLaminin-5: Oriental Yeast Co., ltd. and Human Recombinant Laminin-511: BIOLAMINA AB) was added to and suspended in a predetermined buffer (a dialysis buffer used in <GRAVY value and aggregation characteristics> described above for RCP-1 to RCP-11, and PBS for RCP-21, RCP-25, human vitronectin, and recombinant laminin) at the concentration shown in Table 7, thereby preparing samples 1 to 17. The samples were added to the respective wells of a 96-well plate and adsorbed onto the plate by being held for 2 hours at 37° C.\nInto the respective wells of the 96-well plate treated with the peptides, iPS cells were seeded at a cell density of 30,000 cells/well. After the cells were cultured for 24 hours, the nonadhesive cells were washed off with PBS, and only the adhesive cells were immobilized by using 4% (v/v) paraformaldehyde (Wako Pure Chemical Industries, Ltd.). By using an Attophos (registered trademark) AP Fluorescent Substrate System (Promega Corporation), the ALP activity was calculated, and from the calibration curve, the number of undifferentiated iPS cells having the ALP activity was calculated. In Table 7, the cell adhesion rate is expressed as a ratio calculated by regarding the cell adhesion rate obtained from the sample 15 using natural vitronectin as being 100%. n=3."}, "[4]": {"system": "iPS cells", "assay": "Growth evaluation, number of cells after 3 days", "type": "cell-based, human", "settings": "added amount 1.28 μg/cm^2; 5,000 cells/well; sample 1 (RCP-1) = 100%", "description": "By adding RCP-1 to RCP-11 and Human Recombinant Laminin-511 as control at the concentration shown in Table 9, samples 1 to 12 were prepared. The samples were seeded into a 96-well plate, onto which each of the polypeptides was adsorbed in the same manner as in <Cell adhesiveness evaluation 1>, at a ratio of 5,000 cells/well and cultured for 3 days in a CO2 incubator at 37° C. The number of cells after 3 days was calculated in the same manner as in <Cell adhesiveness evaluation 1>. In Table 9, the number of cells after 3 days is expressed as a ratio calculated by regarding the number of cells obtained by using the sample 1 as being 100%."}, "[5]": {"system": "human iPS cells (\"Tic\")", "assay": "Cell growth property evaluation 1 (different media)", "type": "cell-based", "settings": "for Cell growth rate: laminin 20 μg/ml, 72 hours, RCP-11 with Essential 8 = 100%, n=3", "description": "Furthermore, for evaluation, human iPS cells (“Tic”) that were retention-cultured as described in <Cell adhesiveness evaluation 1> of reference example were treated with TrypLE Select (Invitrogen) for 5 minutes at 37° C. and separated into a single cell. After being subjected to centrifugation for 2 minutes at 300 rpm, the cells were collected, suspended in each medium, and used for the evaluation in each example. Herein, Y-27362 ((R)-(+)-trans-N-(4-pyridyl)-4-(1-aminoethyl)-cyclohexane carboxamide.2HCl.H2O, an Rho binding kinase inhibitor, Wako Pure Chemical Industries, Ltd.) was added to all of the media at a final concentration of 10 μM.\nEach of RCP-11, RCP-5, and recombinant laminin (Human Recombinant Laminin-511: BIOLAMINA AB) as control was added to and suspended in a predetermined buffer (a dialysis buffer used in <GRAVY value and aggregation characteristics> of reference examples for RCP-11 and RCP-5, and PBS for the recombinant laminin) at the final concentration shown in Table 11, thereby preparing polypeptide solutions. The polypeptide solutions were added to the respective wells of a plasma-treated 96-well plate made of polystyrene (BD Falcon) having a plasma-treated cell culture surface and held as they were so as to be adsorbed onto the plate for 2 hours at 37° C. In this way, a peptide-treated 96-well plate having a polypeptide-coated surface was obtained. The iPS cells suspended in the respective media shown in Table 11 were seeded into the respective wells of the obtained peptide-treated 96-well plate at a cell density of 10,000 cells/well. After the cells were cultured for 72 hours, nonadhesive cells were washed off with PBS, and only adhesive cells were immobilized using 4% by mass of paraformaldehyde (Wako Pure Chemical Industries, Ltd.). By using an Attophos (registered trademark) AP Fluorescent Substrate System (Promega Corporation), the ALP activity was calculated, and from the calibration curve, the number of undifferentiated iPS cells having the ALP activity was calculated. In Table 11, the cell adhesion rate is expressed as a ratio calculated by regarding the number of pluripotent stem cells after the culture for 72 hours in a combination of RCP-11 and Essential 8 as being 100%. n=3.\nIn Table 11, “% by mass” in the concentration of 2-meracptoethanol is a proportion (w/v %) of mass (g) of 2-meracptoethanol per 100 mL of the total volume of the medium at the time of culture."}}, "data": [{"substance": "CCTDYTAECKPQVTRGDVFT (Peptide designed for comparative tests (Peptide-5))", "values": [{"measurement": "adhesion of cells to the natural vitronectin on addition of peptide", "setting": "[1]", "result": "significantly hindered"}, {"measurement": "Cell adhesion rate (%)", "setting": "[1]", "result": "70.5 ± 7.1", "unit": "%"}]}, {"substance": "CCTDYTAECKPQVTRGEVFT (Peptide designed for comparative tests (Peptide-7))", "values": [{"measurement": "adhesion of cells to the natural vitronectin on addition of peptide", "setting": "[1]", "result": "not hindered"}, {"measurement": "Cell adhesion rate (%)", "setting": "[1]", "result": "86.7 ± 7.1", "unit": "%"}]}, {"substance": "DKKCQCDELCSYYQSCCTDY (Peptide designed for comparative tests (Peptide-4))", "values": [{"measurement": "adhesion of cells to the natural vitronectin on addition of peptide", "setting": "[1]", "result": "significantly hindered"}, {"measurement": "Cell adhesion rate (%)", "setting": "[1]", "result": "63.8 ± 11.6", "unit": "%"}]}, {"substance": "DQESCKGRCTEGFNVDKKCQ (Peptide designed for comparative tests (Peptide-1))", "values": [{"measurement": "adhesion of cells to the natural vitronectin on addition of peptide", "setting": "[1]", "result": "not hindered"}, {"measurement": "Cell adhesion rate (%)", "setting": "[1]", "result": "91.8 ± 1.2", "unit": "%"}]}, {"substance": "EGFNVDKKCQCDELCSYYQS (Peptide designed for comparative tests (Peptide-3))", "values": [{"measurement": "adhesion of cells to the natural vitronectin on addition of peptide", "setting": "[1]", "result": "not hindered"}, {"measurement": "Cell adhesion rate (%)", "setting": "[1]", "result": "102.5 ± 4.2", "unit": "%"}]}, {"substance": "KGRCTEGFNVDKKCQCDELC (Peptide designed for comparative tests (Peptide-2))", "values": [{"measurement": "adhesion of cells to the natural vitronectin on addition of peptide", "setting": "[1]", "result": "not hindered"}, {"measurement": "Cell adhesion rate (%)", "setting": "[1]", "result": "92.7 ± 19.6", "unit": "%"}]}, {"substance": "Laminin-511: recombinant laminin (Human Recombinant Laminin-511: BIOLAMINA AB)", "values": [{"measurement": "Cell growth rate", "setting": "[2]; Essential8, 2-mercaptoethanol 0", "result": 45.9, "unit": "%"}, {"measurement": "Cell growth rate", "setting": "[2]; Essential8, 2-mercaptoethanol 10 μM (0.0000078% by mass)", "result": 48.6, "unit": "%"}, {"measurement": "Cell growth rate", "setting": "[2]; Essential8, 2-mercaptoethanol 10 μM (0.000078% by mass)", "result": 48.1, "unit": "%"}, {"measurement": "Cell growth rate", "setting": "[2]; Essential8, 2-mercaptoethanol 100 μM (0.00078% by mass)", "result": 44.6, "unit": "%"}, {"measurement": "Cell growth rate", "setting": "[2]; Essential8, 2-mercaptoethanol 1 mM (0.0078% by mass)", "result": 40.9, "unit": "%"}, {"measurement": "Cell growth rate", "setting": "[2]; Essential8, 2-mercaptoethanol 10 mM (0.078% by mass)", "result": 39.3, "unit": "%"}, {"measurement": "dependence of cell growth properties on the concentration of 2-mercaptoethanol", "setting": "[2]; Table 12", "result": "such characteristics were not observed"}, {"measurement": "Cell adhesion rate (%)", "setting": "[3]; added amount 5.0 μg/cm^2", "result": 142.0, "unit": "%"}, {"measurement": "Number of cells after 3 days (%)", "setting": "[4]", "result": 56.8, "unit": "%"}, {"measurement": "cell growth properties with Essential 8 or NutriStem not containing 2-mercaptoethanol versus media containing it", "setting": "[5]; Table 11", "result": "a clear correlation could not be confirmed"}, {"measurement": "Cell growth rate", "setting": "[5]; medium Essential8, 2-mercaptoethanol 0", "result": 45.9, "unit": "%"}, {"measurement": "Cell growth rate", "setting": "[5]; medium NutriStem, 2-mercaptoethanol 0", "result": 98.8, "unit": "%"}, {"measurement": "Cell growth rate", "setting": "[5]; medium ReproFF2, 2-mercaptoethanol 102.4 μM (0.0008% by mass)", "result": 93.9, "unit": "%"}, {"measurement": "Cell growth rate", "setting": "[5]; medium StemPro hESC SFM, 2-mercaptoethanol 100 μM (0.00078% by mass)", "result": 103.7, "unit": "%"}, {"measurement": "Cell growth rate", "setting": "[5]; medium TeSR2, 2-mercaptoethanol 48.6 μM (0.00038% by mass)", "result": 14.4, "unit": "%"}]}, {"substance": "TAECKPQVTRGDVFTMPEDE (Peptide designed for comparative tests (Peptide-6))", "values": [{"measurement": "adhesion of cells to the natural vitronectin on addition of peptide", "setting": "[1]", "result": "significantly hindered"}, {"measurement": "Cell adhesion rate (%)", "setting": "[1]", "result": "52.7 ± 10.3", "unit": "%"}]}, {"substance": "TAECKPQVTRGEVFTMPEDE (Peptide designed for comparative tests (Peptide-8))", "values": [{"measurement": "adhesion of cells to the natural vitronectin on addition of peptide", "setting": "[1]", "result": "not hindered"}, {"measurement": "Cell adhesion rate (%)", "setting": "[1]", "result": "83.8 ± 14.8", "unit": "%"}]}, {"substance": "rLaminin-5: recombinant laminin (rLaminin-5: Oriental Yeast Co., ltd.)", "values": [{"measurement": "Cell adhesion rate (%)", "setting": "[3]; added amount 3.2 μg/cm^2", "result": 155.7, "unit": "%"}]}]}
